Test systems include NCI-H226 lung; SK-MEL-28 melanoma; COLO 205 colon; OVCAR-3 ovarian; A549 NSCLC; SF-268 CNS; MDA-MB-231 breast; MDA-MB-435; EKVX NSCLC; HS 578T breast.
What all share (assay): NCI anticancer screen, dose series, 48 h

Values joined by “and” are separate entries in the source; they are usually repeats but may differ in a detail not shown here. Equal values may be shown once.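 Exposure lasted 48 hours, with cells grown in 96-well plates and compounds tested at five concentrations. Abbreviation: GI50, concentration required for 50% inhibition of growth. The concentration for full growth arrest is given as TGI.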 Residues, ends and D or L forms follow the SMILES beside them. *: point of attachment. Cbz = O=C(OCc1ccccc1)*

With `Cc1c2c(nn1-c1ccc(S(=O)(=O)NC(=S)NC(=O)c3ccccc3)cc1)-c1ccccc1CC2`, the GI50 in the assay with NCI-H226 lung was 60.2 µM; with SK-MEL-28 melanoma, 41.1 µM; with COLO 205 colon, 44.9 µM; with OVCAR-3 ovarian, 13.7 µM; in the assay on A549 NSCLC, 54.1 µM; in the assay on SF-268 CNS it was 29.3 µM. Moreover, the values for the GI50 in the assay on MDA-MB-231 breast and with MDA-MB-435 were 42.5 µM and 27.9 µM, respectively. Also, the TGI with NCI-H226 lung was more than 100 µM; with SK-MEL-28 melanoma it was more than 100 µM; in the assay on COLO 205 colon, more than 100 µM; in the assay with OVCAR-3 ovarian, 41.4 µM; with A549 NSCLC, more than 100 µM; with SF-268 CNS it was more than 100 µM. The values for the TGI in the assay with MDA-MB-231 breast and with MDA-MB-435 were more than 100 µM and 91.4 µM, respectively.

Regarding `CC(C)=NNC(=S)NC12CC3CC(CC(C3)C1)C2`, the TGI in the assay with NCI-H226 lung, with SK-MEL-28 melanoma, with COLO 205 colon, in the assay with OVCAR-3 ovarian, in the assay with A549 NSCLC and in the assay on SF-268 CNS was more than 100 µM each time. Also, the TGI in the assay with EKVX NSCLC is more than 100 µM.

Take `O=[N+]([O-])C=C1c2ccccc2-c2ccccc21`: the TGI with SK-MEL-28 melanoma stood at 31.1 µM; with COLO 205 colon it was 3.33 µM; with OVCAR-3 ovarian it was 28.4 µM; with A549 NSCLC it was 42.8 µM; in the assay on SF-268 CNS it was 36.4 µM; in the assay on EKVX NSCLC, 37.1 µM.

Consider `O=C1C(=O)N(c2ccc(Cl)cc2)C(=O)C(=Nc2cccc3c(=O)[nH][nH]c(=O)c23)C1c1nc2ccccc2o1` (configuration not stated), for which the TGI with NCI-H226 lung, in the assay on SK-MEL-28 melanoma, in the assay on COLO 205 colon, in the assay with OVCAR-3 ovarian, with A549 NSCLC and in the assay on SF-268 CNS was more than 100 µM in each case. Moreover, the TGI in the assay with EKVX NSCLC is more than 100 µM.

With `Cc1ccc(C2=Nc3ccccc3S(=O)C(c3ccc4c(c3)OCO4)C2)cc1` (configuration not stated), the TGI in the assay on NCI-H226 lung was more than 100 µM; in the assay with SK-MEL-28 melanoma it was 89.9 µM; in the assay on COLO 205 colon, more than 100 µM; in the assay on OVCAR-3 ovarian it was 69.4 µM; in the assay with A549 NSCLC, more than 100 µM; in the assay on SF-268 CNS it was 50.5 µM. The same compound returned a TGI in the assay on EKVX NSCLC of more than 100 µM.

Consider `O=C(O)c1c2c(cc3c(=O)cc(-c4ccccc4)oc13)CCCC2`, for which the TGI with SK-MEL-28 melanoma, in the assay with COLO 205 colon, in the assay on OVCAR-3 ovarian, in the assay with A549 NSCLC, with SF-268 CNS and with EKVX NSCLC was more than 100 µM in each case.

With `COC(=O)C1[C@H](c2ccc3c(c2)OCO3)OC(=O)[C@]1(C(=O)OC)C(=O)c1ccc(OC)c(OC)c1` (some centres not stated), the TGI in the assay with NCI-H226 lung, in the assay on COLO 205 colon, in the assay on OVCAR-3 ovarian and in the assay on EKVX NSCLC was more than 100 µM throughout.

In the case of `CN1CCN(CCCN2c3ccccc3Sc3ccc(Cl)cc32)CC1`, the GI50 was 4.37 µM and 36.6 µM in the assay with COLO 205 colon; 5.94 µM and 55.2 µM in the assay on OVCAR-3 ovarian; 6.5 µM and 56.8 µM with A549 NSCLC; 5.27 µM in the assay on SF-268 CNS; 5.46 µM in the assay on EKVX NSCLC. For the same compound, the TGI with COLO 205 colon is 11.6 µM and 51.1 µM; in the assay with OVCAR-3 ovarian, 12.8 µM; in the assay with A549 NSCLC it was 13.7 µM; in the assay with HS 578T breast, 13.5 µM and 83.2 µM; with SF-268 CNS, 12 µM; in the assay with EKVX NSCLC, 12.4 µM. Further, in the assay with MDA-MB-435, the TGI is 6.02 µM and 58.6 µM.

With `c1ccc2c(CNCCCCCCCCNCc3cccc4ccccc34)cccc2c1`, the TGI amounted to 24.5 µM with NCI-H226 lung; 3.32 µM with SK-MEL-28 melanoma; 3.43 µM in the assay on COLO 205 colon; 22.5 µM with OVCAR-3 ovarian; 5.41 µM in the assay with A549 NSCLC; 21.4 µM in the assay on SF-268 CNS. This compound also came in with a TGI in the assay with EKVX NSCLC of 18.8 µM.

For `Cc1ccc(C(=O)NCCN(C)C)c2nc3ccccc3cc12`, the TGI was 3.85 µM with NCI-H226 lung; 5.46 µM in the assay on SK-MEL-28 melanoma; more than 100 µM with COLO 205 colon; 6.79 µM in the assay with OVCAR-3 ovarian; 4.53 µM with A549 NSCLC; 4.76 µM with EKVX NSCLC.

Turning to `COc1ccc2nc3cccc([N+](=O)[O-])c3c(NC(C)CN(C)C)c2c1` (configuration not stated), the GI50 is 1.75 µM in the assay on NCI-H226 lung; 3.05 µM with SK-MEL-28 melanoma; 1.84 µM in the assay on COLO 205 colon; 3.15 µM with OVCAR-3 ovarian; 3.48 µM in the assay on A549 NSCLC; 2.64 µM with SF-268 CNS. For the same compound, the GI50 with MDA-MB-231 breast is 2.23 µM; in the assay on EKVX NSCLC it was 6.96 µM. Also, the TGI was determined as 4.1 µM with NCI-H226 lung; 6.89 µM in the assay on COLO 205 colon; 10.4 µM in the assay with OVCAR-3 ovarian; 8.93 µM in the assay on A549 NSCLC; 11.9 µM in the assay on SF-268 CNS; 10.6 µM with MDA-MB-231 breast. Also, the TGI with EKVX NSCLC was 34.4 µM.

For `CN(/N=C\c1ccnc2ccccc12)c1ccccc1`, the TGI is 82.7 µM in the assay on SK-MEL-28 melanoma; 39.8 µM in the assay with COLO 205 colon; 44.2 µM in the assay with OVCAR-3 ovarian; 53.1 µM in the assay on A549 NSCLC; more than 100 µM in the assay on SF-268 CNS; 91.2 µM in the assay with EKVX NSCLC.

On to `COC12OCCN(C)C1=CC(=O)C1(C)N=NCC12` (configuration not stated), for which the TGI in the assay with NCI-H226 lung, in the assay with SK-MEL-28 melanoma, in the assay with COLO 205 colon, in the assay on OVCAR-3 ovarian, in the assay with A549 NSCLC and with EKVX NSCLC was more than 100 µM throughout.

For the compound `Cc1ccc(S(=O)(=O)OCCOCCOCCOCCOCCOS(=O)(=O)c2ccc(C)cc2)cc1`, the TGI in the assay on NCI-H226 lung is more than 100 µM; in the assay with SK-MEL-28 melanoma, more than 100 µM; in the assay with COLO 205 colon it was 34.8 µM; with OVCAR-3 ovarian, more than 100 µM; in the assay with A549 NSCLC, more than 100 µM; in the assay with SF-268 CNS, more than 100 µM. This compound also came in with a TGI in the assay on EKVX NSCLC of more than 100 µM.

With `CN(C)CCNC(=O)c1ccc2oc3cc4ccccc4c(=O)n3c2c1`, the GI50 was 26.6 µM in the assay on SK-MEL-28 melanoma; 32.1 µM with COLO 205 colon; 15.4 µM in the assay on OVCAR-3 ovarian; 26.2 µM in the assay with A549 NSCLC; 32.6 µM in the assay with SF-268 CNS; 31.8 µM in the assay with MDA-MB-231 breast. The GI50 with EKVX NSCLC is 27.5 µM; in the assay with MDA-MB-435, 42.1 µM. In addition, the TGI was more than 100 µM in the assay with SK-MEL-28 melanoma; more than 100 µM in the assay with COLO 205 colon; 52.6 µM in the assay on OVCAR-3 ovarian; 97 µM in the assay on A549 NSCLC; 93.2 µM in the assay with SF-268 CNS; more than 100 µM in the assay with MDA-MB-231 breast. For the same compound, the TGI with EKVX NSCLC and with MDA-MB-435 was more than 100 µM in each case.

On to `COc1cc(O)c2c(c1)C(=O)C1=C(C2=O)C(O)C[C@@](C)(O)C1` (some centres not stated), for which the TGI in the assay with NCI-H226 lung turned out to be 13.2 µM; with SK-MEL-28 melanoma it was 3.15 µM; in the assay with COLO 205 colon, 0.844 µM; in the assay on OVCAR-3 ovarian, 5.67 µM; in the assay on A549 NSCLC, 11.5 µM; in the assay with SF-268 CNS it was 4.47 µM. In the assay with EKVX NSCLC, this compound registered a TGI of 13.1 µM.

`CCOC(=O)CN(c1ccccc1)c1nc(=[N+](C)C)ss1`: the TGI in the assay with NCI-H226 lung was 75.4 µM; with SK-MEL-28 melanoma it was more than 100 µM; with COLO 205 colon it was 15.4 µM; with OVCAR-3 ovarian, 2 µM; with A549 NSCLC, more than 100 µM; with SF-268 CNS it was more than 100 µM.

As for `CC(C)C[C@@H](C=O)NC(=O)[C@H](CC(C)C)NC(=O)[C@H](CC(C)C)NC(=O)OCc1ccccc1` (Cbz-Leu-Leu-Leu-aldehyde), the GI50 in the assay on SK-MEL-28 melanoma was 0.419 µM; in the assay on COLO 205 colon, 0.404 µM; in the assay with OVCAR-3 ovarian, 0.225 µM; with A549 NSCLC it was 0.578 µM; with HS 578T breast, 0.437 µM; in the assay on SF-268 CNS, 0.297 µM. The GI50 with MDA-MB-231 breast is 0.328 µM; in the assay on EKVX NSCLC, 0.682 µM. The TGI was 11.6 µM in the assay with SK-MEL-28 melanoma; 1.62 µM in the assay on COLO 205 colon; 0.538 µM in the assay on OVCAR-3 ovarian; 12.8 µM in the assay with A549 NSCLC; more than 100 µM with HS 578T breast; 1.45 µM in the assay on SF-268 CNS. For the same compound, the results for the TGI in the assay with MDA-MB-231 breast and with EKVX NSCLC were 1.21 µM and more than 100 µM, respectively.

For `CCCCCCCCCCOC(=O)NCCC`, the TGI is more than 100 µM in the assay with SK-MEL-28 melanoma; more than 100 µM in the assay with COLO 205 colon; more than 100 µM in the assay with OVCAR-3 ovarian; more than 100 µM with A549 NSCLC; more than 100 µM with SF-268 CNS; 67.7 µM with EKVX NSCLC.

On to `O=C(O)CN(c1ccc(F)cc1)S(=O)(=O)c1ccccc1`, for which the TGI with NCI-H226 lung, with SK-MEL-28 melanoma, in the assay with COLO 205 colon, with OVCAR-3 ovarian, in the assay with A549 NSCLC and in the assay with SF-268 CNS was more than 100 µM throughout. This compound also showed a TGI with EKVX NSCLC of more than 100 µM.

`CC(=O)OCC1OC(n2ncc(=O)[nH]c2=O)C(OC(C)=O)C1OC(C)=O` (configuration not stated): the TGI with NCI-H226 lung, with SK-MEL-28 melanoma, with COLO 205 colon, in the assay on OVCAR-3 ovarian, in the assay with A549 NSCLC and in the assay on HS 578T breast was more than 100 µM in each case. Also, the TGI with SF-268 CNS and in the assay on MDA-MB-435 was more than 100 µM in each case.

Regarding `CC[PH+](CC)CC.CC[PH+](CC)CC.[Au]`, the GI50 with NCI-H226 lung was 18.2 µM; with SK-MEL-28 melanoma, 3.88 µM; in the assay with COLO 205 colon, 2.52 µM; in the assay on OVCAR-3 ovarian it was 18.2 µM; in the assay with A549 NSCLC it was 22.8 µM; in the assay on SF-268 CNS it was 13.4 µM. The GI50 in the assay with EKVX NSCLC was 5.83 µM. For the same compound, the TGI in the assay with NCI-H226 lung turned out to be 37.5 µM; in the assay with SK-MEL-28 melanoma it was 16.9 µM; in the assay with COLO 205 colon, 7.32 µM; in the assay on OVCAR-3 ovarian, 33.2 µM; with A549 NSCLC, 53.1 µM; in the assay on SF-268 CNS, 30.1 µM. This compound also returned a TGI in the assay with EKVX NSCLC of 11.5 µM.

These data come from PubChem BioAssay (NCI).
